Experimental data as given in patent US11076595B2, “1-(n,n-disubstituted carbamoyl) 4-(substituted sulfonyl)triazolin-5-one derivative, 4-(n,n-disubstituted carbamoyl) 1-(substituted sulfonyl)triazolin-5-one derivative, and herbicide containing said derivative as active ingredient” (HOKKO CHEMICAL INDUSTRY CO., LTD., priority 2017, dated 2021).

How the values were obtained:
Assay type in all cases: in vivo
[1] = tested on: Echinochloa crus-galli; assay: Test Example 1: herbicidal effect test by soil treatment in paddy field; settings: 120 g/10a, paddy soil treatment just after sowing, 14 days after treatment
Procedure, shortened: (§1)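 Weed suppression (%) was calculated at 14 days from mean plant dry weight relative to untreated pots, with duplicate pots per rate. The compound went into the flood water as a diluted emulsifiable concentrate (120 g a.i./10 are) immediately after sowing seeds 0–1 cm deep. Pots held ~3 cm water in a glasshouse.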

[2] = tested on: Lindernia pyxidaria; assay: as above; settings: 120 g/10a, paddy soil treatment just after sowing, 14 days after treatment
Procedure, shortened: as §1

[3] = tested on: Monochoria vaginalis; assay: as above; settings: 120 g/10a, paddy soil treatment just after sowing, 14 days after treatment
Procedure, shortened: as §1

[4] = tested on: Scirpus juncoides; assay: as above; settings: 120 g/10a, paddy soil treatment just after sowing, 14 days after treatment
Procedure, shortened: as §1

[5] = tested on: Echinochloa crus-galli; assay: Test Example 2: herbicidal effect test by treatment during growing period in paddy field; settings: treatment 7 days after sowing, 120 g/10a, evaluated 14 days after treatment
Procedure, shortened: (§2)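 Read-out is weed suppression (%), 1 − mean dry weight treated/untreated ×100, taken 14 days after treatment with duplicate plots. Treatment: water-diluted emulsifiable concentrate added dropwise to flooded paddy-soil pots 7 days post-sowing at 120 g active ingredient per 10 are.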

[6] = tested on: Lindernia pyxidaria; assay: as above; settings: treatment 7 days after sowing, 120 g/10a, evaluated 14 days after treatment
Procedure, shortened: as §2

[7] = tested on: Monochoria vaginalis; assay: as above; settings: treatment 7 days after sowing, 120 g/10a, evaluated 14 days after treatment
Procedure, shortened: as §2

[8] = tested on: Scirpus juncoides; assay: as above; settings: treatment 7 days after sowing, 120 g/10a, evaluated 14 days after treatment
Procedure, shortened: as §2

[9] = tested on: Amaranthus viridis; assay: Test Example 3: herbicidal effect test by soil treatment in upland field; settings: upland field soil treatment 1 day after sowing; 120 g/10a; evaluated 14 days after treatment
Procedure, shortened: (§3)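 Pre-emergence soil spray applied one day after sowing 20 seeds of each weed into surface soil, dosed at 120 g a.i. per 10 are in 100 L water per 10 are. After 14 days, plants weighed dry; suppression (%) calculated against untreated plots, duplicate plots per concentration.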

[10] = tested on: Chenopodium album; assay: as above; settings: upland field soil treatment 1 day after sowing; 120 g/10a; evaluated 14 days after treatment
Procedure, shortened: as §3

[11] = tested on: Echinochloa crus-galli; assay: as above; settings: upland field soil treatment 1 day after sowing; 120 g/10a; evaluated 14 days after treatment
Procedure, shortened: as §3

[12] = tested on: crabgrass; assay: as above; settings: upland field soil treatment 1 day after sowing; 120 g/10a; evaluated 14 days after treatment
Procedure, shortened: as §3

[13] = tested on: Amaranthus viridis; assay: Test Example 4: herbicidal effect test by foliage treatment in upland field; settings: upland field foliage treatment 7 days after sowing; 120 g/10a; evaluated 14 days after treatment
Procedure, shortened: (§4)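 Suppression rate (%) derives from mean plant dry weight in treated versus untreated plots, measured 14 days after spraying, with two replications per plot. The emulsifiable concentrate was applied 7 days after sowing at 120 g active ingredient per 10 are.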

[14] = tested on: Chenopodium album; assay: as above; settings: upland field foliage treatment 7 days after sowing; 120 g/10a; evaluated 14 days after treatment
Procedure, shortened: as §4

[15] = tested on: Echinochloa crus-galli; assay: as above; settings: upland field foliage treatment 7 days after sowing; 120 g/10a; evaluated 14 days after treatment
Procedure, shortened: as §4

[16] = tested on: crabgrass; assay: as above; settings: upland field foliage treatment 7 days after sowing; 120 g/10a; evaluated 14 days after treatment
Procedure, shortened: as §4

Compound | weed suppression rate, Echinochloa crus-galli [1] [%] | weed suppression rate, Lindemia pyxidaria [2] [%] | weed suppression rate, Monochoria vaginalis [3] [%] | weed suppression rate, Scirpus juncoides [4] [%] | weed suppression rate, Echinochloa crus-galli [5] [%] | weed suppression rate, Lindemia pyxidaria [6] [%] | weed suppression rate, Monochoria vaginalis [7] [%] | weed suppression rate, Scirpus juncoides [8] [%] | herbicidal effect (weed suppression rate), Amaranthus viridis [9] [%] | herbicidal effect (weed suppression rate), Chenopodium album [10] [%] | herbicidal effect (weed suppression rate), Echinochloa crus-galli [11] [%] | herbicidal effect (weed suppression rate), Crabgrass [12] [%] | herbicidal effect (weed suppression rate), Amaranthus viridis [13] [%] | herbicidal effect (weed suppression rate), Chenopodium album [14] [%] | herbicidal effect (weed suppression rate), Echinochloa crus-galli [15] [%] | herbicidal effect (weed suppression rate), Crabgrass [16] [%]
CC(C)N(C(=O)n1ncn(S(=O)(=O)C2CC2)c1=O)c1c(F)cccc1F [Compound 1-200] | 100 | 100 | 80 | 100 | 100 | 80 | 90 | 100 | 40 | 40 | 100 | 100 | 80 | 70 | 100 | 100
CC(C)N(C(=O)n1ncn(S(=O)(=O)C2CCCCC2)c1=O)c1ccccc1 [Compound 1-295] | 90 | 80 | 80 | 90 | 90 | 80 | 80 | 90 | 90 | 80 | 80 | 90 | 90 | 80 | 80 | 90
CC(C)N(C(=O)n1ncn(S(=O)(=O)C(C)C)c1=O)c1ccc(Cl)cn1 [Compound 1-93] | 90 | 100 | 80 | 90 | 100 | 100 | 90 | 90 | 80 | 40 | 90 | 90 | 0 | 0 | 90 | 90
CC(C)N(C(=O)n1ncn(S(=O)(=O)N(C)C)c1=O)c1ccc(F)cc1 [Compound 1-1095] | 90 | 80 | 80 | 90 | 90 | 80 | 80 | 90 | 90 | 80 | 80 | 90 | 90 | 80 | 80 | 90
CC(C)N(C(=O)n1ncn(S(=O)(=O)N(C)C)c1=O)c1ccc(F)cc1F [Compound 1-1103] | 90 | 80 | 80 | 90 | 90 | 80 | 80 | 90 | 60 | 60 | 100 | 100 | 90 | 80 | 80 | 90
CC(C)N(C(=O)n1ncn(S(=O)(=O)C2CCCC2)c1=O)c1ccc(F)cc1F [Compound 1-284] | 100 | 100 | 100 | 100 | 90 | 90 | 90 | 90 | 60 | 90 | 90 | 90 | 90 | 80 | 80 | 90
CC(C)N(C(=O)n1ncn(S(=O)(=O)C(C)C)c1=O)c1ccc(Cl)nc1Cl [Compound 1-98] | 100 | 90 | 90 | 90 | 100 | 80 | 90 | 90 | 90 | 80 | 80 | 90 | 90 | 80 | 80 | 90
CC(C)N(C(=O)n1ncn(S(=O)(=O)C2CC2)c1=O)c1ccc(Cl)cc1F [Compound 1-215] | 100 | 100 | 100 | 100 | 100 | 100 | 100 | 100 | 80 | 80 | 80 | 80 | 60 | 60 | 90 | 90
